pIC50: −log10 of the molar value.
Target: T1, chymase extracted from a dog cardiac tissue (Canis lupus familiaris, UniProt P21842)
T1 construct: The obtained supernatant is used as a chymase enzyme solution; from tissue; host or cells: beagle heart, left ventricle (2.0 M KCl / 1% Triton X-100 extract)
T1 sequence (P21842 22-249): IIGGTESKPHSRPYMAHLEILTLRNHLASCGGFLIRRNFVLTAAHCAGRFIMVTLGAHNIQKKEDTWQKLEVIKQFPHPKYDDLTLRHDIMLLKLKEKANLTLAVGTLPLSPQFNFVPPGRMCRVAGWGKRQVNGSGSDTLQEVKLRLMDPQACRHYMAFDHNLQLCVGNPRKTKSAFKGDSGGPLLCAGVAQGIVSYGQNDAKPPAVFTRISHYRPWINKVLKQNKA
Experiment: Chymase inhibitory effect (liberation of His-Leu from angiotensin I, fluorescence)
Format: biochemical
Conditions: substrate angiotensin I; 37° C., one hour; pH 8 reaction buffer; read-out: IC50 (concentration required to inhibit the chymase enzymatic activity by 50%)
Source text: Chymase (enzyme) causes angiotensin I (substrate) to liberate a dipeptide (His-Leu) by the enzyme reaction with the substrate. It was reported that an enzymatic activity of chymase can be measured by measuring fluorescence intensity of the resulting peptide (Biochem. Biophys. Res. Com., 149 (3) 1186 (1987)). Since drugs having chymase inhibitory activities suppress this liberation of the dipeptide, the chymase inhibitory activities of the drugs can be measured by measuring fluorescence intensity. In the present pharmacological test, chymase inhibitory effects of the present compounds were studied by using chymase extracted from a dog cardiac tissue (J. Biol. Chem., 265 (36), 22348 (1990)).
• 1. A beagle is killed by drawing blood under Nembutal anesthesia, a heart is enucleated, and left ventricle is separated. • 2. This left ventricle is finely minced, and the tissue weight is measured. • 3. A 0.02 M Tris-HCl buffer (pH 7.4) is added to the tissue in an amount of 10 times by volume the tissue weight. The obtained mixture is homogenized at 8,000 rpm for 20 seconds and then centrifuged at 4° C. and 21,000 rpm for 30 minutes, and the resulting supernatant is discarded. • 4. The same procedure as the above 3 is repeated twice for the residue. Then, a 0.02 M Tris-HCl buffer (pH 7.4) containing 1% Triton X-100 and 0.01 M potassium chloride is added to the residue in an amount of 10 times by volume the amount of the residue. The obtained mixture is homogenized at 8,000 rpm for 20 seconds, then incubated at 4° C. for one hour and centrifuged at 21,000 rpm for 30 minutes, and the supernatant is discarded. • 5. A 0.02 M Tris-HCl buffer (pH 7.4) containing 1% Triton X-100 and 0.5 M potassium chloride is added to the residue in an amount of 10 times by volume the amount of the residue. The obtained mixture is homogenized at 8,000 rpm for 20 seconds, then incubated at 4° C. for one hour and centrifuged at 21,000 rpm for 30 minutes, and the supernatant is discarded. • 6. A 0.02 M Tris-HCl buffer (pH 7.4) containing 1% Triton X-100 and 2.0 M potassium chloride is added to the residue in an amount of 10 times the amount of the residue. The obtained mixture is homogenized at 8,000 rpm for 20 seconds, then incubated at 4° C. for one hour and centrifuged at 21,000 rpm for 30 minutes. The obtained supernatant is used as a chymase enzyme solution. [2. Preparation of Reaction Buffer]
Tris-HCl and disodium ethylenediaminetetraacetate are dissolved in water so that their concentrations are 92.3 mM and 12.0 mM respectively to prepare a reaction buffer adjusted to pH 8.
Angiotensin I is dissolved in water to prepare a 1.54 mM substrate solution.
A test compound is dissolved in dimethyl sulfoxide to prepare 3.0×10^−3M, 3.0×10^−4 M, 3.0×10^−5 M and 3.0×10^−6 M test compound solutions.
• 1. The reaction buffer (32.5 μl), the substrate solution (75.0 μl), the chymase enzyme solution (37.5 μl) and the test compound solution (5 μl) are mixed. • 2. The obtained mixture is incubated at 37° C. for one hour. • 3. To the mixture is added 15% trichloroacetic acid (225 μl), and the whole is centrifuged at 4° C. and 14,000 rpm for five minutes. • 4. The supernatant is taken out. A 1% orthophthalaldehyde/methanol solution (165 μl) is added to 300 μl of this supernatant, and the whole is stirred and allowed to stand at room temperature for 10 minutes. • 5. 1.5 M Hydrochloric acid (300 μl) is added to the resulting mixture, and the whole is stirred and centrifuged at 4° C. and 14,000 rpm for two minutes. • 6. The supernatant is taken out and irradiated with light having a wavelength of 340 nm, and fluorescence intensity is measured at a wavelength of 455 nm.
The blank of this test is defined as follows. […]
For `CC(C)C1C(=O)N(CC(=O)N[C@@H](Cc2ccccc2)C(=O)C2=NC(C)(C)CO2)C(c2ccccc2)=CN1C(=O)c1ccccc1` (mixture of isomers) [Compound No. 10-7, (2S)-2-{(3RS)-4-Benzoyl-3-isopropyl-2-oxo-6-phenyl-1,2,3,4-tetrahydropyrazin-1-yl}methylcarbonylamino-1-(4,4-dimethyl-4,5-dihydro-1,3-oxazol-2-yl)-1-oxo-3-phenylpropane], the pIC50 was 6.43.
In the case of `CC(C)OC(=O)C(=O)[C@H](Cc1ccccc1)NC(=O)CN1C(=O)C(C(C)C)N(C(=O)c2cccnc2)C=C1c1ccccc1` (mixture of isomers) [Compound No. 2-31, Isopropyl (3S)-3-{(3RS)-3-isopropyl-2-oxo-6-phenyl-4-(3-pyridylcarbonyl)-1,2,3,4-tetrahydropyrazin-1-yl}methylcarbonylamino-2-oxo-4-phenylbutyrate], the pIC50 was 6.68.
For `CC(C)OC(=O)C(=O)[C@H](Cc1ccccc1)NC(=O)CN1C(=O)C(C(C)C)SC=C1c1ccccc1` (mixture of isomers) [Compound No. 2-63, Isopropyl (3S)-3-{(2RS)-2-isopropyl-3-oxo-5-phenyl-3,4-dihydro-2H-1,4-thiazin-4-yl}methylcarbonylamino-2-oxo-4-phenylbutyrate], the pIC50 was 6.49.
`CC(=O)N1C=C(c2ccccc2)N(CC(=O)N[C@@H](Cc2ccccc2)C(=O)c2nc3ccccc3s2)C(=O)C1C(C)C` (mixture of isomers) [Compound No. 2-46, (2S)-2-{(3RS)-4-Acetyl-3-isopropyl-2-oxo-6-phenyl-1,2,3,4-tetrahydropyrazin-1-yl}methylcarbonylamino-1-(1,3-benzothiazol-2-yl)-1-oxo-3-phenylpropane] gave a pIC50 of 5.42.
`CC(C)OC(=O)C(=O)[C@H](Cc1ccccc1)NC(=O)CN1C(=O)C(C(C)C)N(S(=O)(=O)c2ccccc2)C=C1c1ccccc1` (mixture of isomers) [Compound No. 2-34, Isopropyl (3S)-3-{(3RS)-4-benzenesulfonyl-3-isopropyl-2-oxo-6-phenyl-1,2,3,4-tetrahydropyrazin-1-yl}methylcarbonylamino-2-oxo-4-phenylbutyrate] gave a pIC50 of 6.60.
`COc1ccc(C2=CSC(C(C)C)C(=O)N2CC(=O)N[C@@H](Cc2ccccc2)C(=O)C(=O)OC(C)C)cc1` (mixture of isomers) [Compound No. 2-65, Isopropyl (3S)-3-{(2RS)-2-isopropyl-5-(4-methoxyphenyl)-3-oxo-3,4-dihydro-2H-1,4-thiazin-4-yl}methylcarbonylamino-2-oxo-4-phenylbutyrate] showed a pIC50 of 6.55.
With `CC(C)OC(=O)C(=O)[C@H](Cc1ccccc1)NC(=O)CN1C(=O)C(C(C)C)N(C(=O)c2ccncc2)C=C1c1ccccc1` (mixture of isomers) [Compound No. 2-32, Isopropyl (3S)-3-{(3RS)-3-isopropyl-2-oxo-6-phenyl-4-(4-pyridylcarbonyl)-1,2,3,4-tetrahydropyrazin-1-yl}methylcarbonylamino-2-oxo-4-phenylbutyrate] the pIC50 was 6.44.
Work on `CC(=O)N1C=C(c2ccccc2)N(CC(=O)NC(Cc2ccccc2)C(=O)C(F)(F)F)C(=O)C1C(C)C` (racemic) [Compound No. 4-1, (3RS)-3-{(3RS)-4-Acetyl-3-isopropyl-2-oxo-6-phenyl-1,2,3,4-tetrahydropyrazin-1-yl}methylcarbonylamino-2-oxo-4-phenyl-1,1,1-trifluorobutane] yielded a pIC50 of 5.82.
With `CC(=O)N1C=C(c2ccccc2)N(CC(=O)N[C@@H](Cc2ccccc2)C(=O)C2=NCCS2)C(=O)C1C(C)C` (mixture of isomers) [Compound No. 2-48, (2S)-2-{(3RS)-4-Acetyl-3-isopropyl-2-oxo-6-phenyl-1,2,3,4-tetrahydropyrazin-1-yl}methylcarbonylamino-1-(4,5-dihydro-1,3-thiazol-2-yl)-1-oxo-3-phenylpropane] the pIC50 was 5.92.
With `CC(=O)N1C=C(c2ccccc2)N(CC(=O)N[C@@H](Cc2ccccc2)C(=O)C2=NCCO2)C(=O)C1C(C)C` (mixture of isomers) [Compound No. 2-47, (2S)-2-{(3RS)-4-Acetyl-3-isopropyl-2-oxo-6-phenyl-1,2,3,4-tetrahydropyrazin-1-yl}methylcarbonylamino-1-(4,5-dihydro-1,3-oxazol-2-yl)-1-oxo-3-phenylpropane] the pIC50 was 6.30.
Molecule `CC(C)OC(=O)C(=O)[C@H](Cc1ccccc1)NC(=O)CN1C(=O)[C@@H](C(C)C)N(C(=O)c2ccccc2)C=C1c1ccccc1` [Compound No. 2-22, Isopropyl (3S)-3-{(3R)-4-benzoyl-3-isopropyl-2-oxo-6-phenyl-1,2,3,4-tetrahydropyrazin-1-yl}methylcarbonylamino-2-oxo-4-phenylbutyrate] has a pIC50 of 6.70.

System: not given
Experiment: not given
Conditions: not given
`CC(C)[C@@H]1C(=O)N(CC(=O)N[C@@H](Cc2ccccc2)C(=O)C2=NC(C)(C)CO2)C(c2ccccc2)=CN1C(=O)c1cc[n+](CC(N)=O)cc1.[I-]` [Compound No. 21-12, 4-{(2R)-4-[(1S)-1-Benzyl-2-(4,4-dimethyl-4,5-dihydro-1,3-oxazol-2-yl)-2-oxoethylcarbamoylmethyl]-2-isopropyl-3-oxo-5-phenyl-1,2,3,4-tetrahydro-1-pyrazinylcarbonyl}-1-(carbamoylmethyl)pyridinium iodide] gave a melting point of 78 to 85 °C.
With `CC(C)[C@@H]1C(=O)N(CC(=O)N[C@@H](Cc2ccccc2)C(=O)C2=NC(C)(C)CO2)C(c2ccccc2)=CN1C(=O)c1ccc[n+](CC(N)=O)c1.[Br-]` the melting point was 110 °C.
Molecule `CC(C)[C@@H]1C(=O)N(CC(=O)N[C@@H](Cc2ccccc2)C(=O)C2=NCC(C)(C)S2)C(c2ccccc2)=CN1C(=O)c1ccncc1` [Compound No. 10-10, (2S)-1-(5,5-Dimethyl-4,5-dihydro-1,3-thiazol-2-yl)-2-{(3R)-3-isopropyl-2-oxo-6-phenyl-4-(4-pyridylcarbonyl)-1,2,3,4-tetrahydropyrazin-1-yl}methylcarbonylamino-1-oxo-3-phenylpropane] has a melting point of 100 to 125 °C.
In the case of `CC(C)[C@@H]1C(=O)N(CC(=O)N[C@@H](Cc2ccccc2)C(=O)C2=NC(C)(C)CO2)C(c2ccccc2)=CN1C(=O)c1ccc[n+](Cc2ccccc2)c1.[Br-]` [Compound No. 21-3, 1-Benzyl-3-[(2R)-4-{(1S)-1-benzyl-2-(4,4-dimethyl-4,5-dihydro-1,3-oxazol-2-yl)-2-oxoethylcarbamoylmethyl}-2-isopropyl-3-oxo-5-phenyl-1,2,3,4-tetrahydro-1-pyrazinylcarbonyl]pyridinium bromide], the melting point was 135 to 150 °C.
